Measured values published in PubChem BioAssay AID624367 (Broad Institute, 2012).
Active and inactive are the calls of the source. How the calls were made is not given here.

How the values were obtained:
[1] = test system: Lymphoblastoid cell line (LCL) cytotoxicity, plate reader; assay: lymphoblastoid cell cytotoxicity, dose response, cytotoxicity control, plate reader, dry powder, set 2 (AID 624367)
[2] = as above; conditions: Lymphoblastoid cell line (LCL) cytotoxicity, plate reader

## O=C(C[C@H]1C[C@H]2c3cc(NC(=O)c4ccc5c(c4)OCO5)ccc3O[C@H]2[C@H](CO)O1)NCc1ccc(Oc2ccccc2)cc1
[1]
  AC35: 33.8 µM

## O=C(C[C@@H]1C[C@@H]2c3cc(NC(=O)c4ccc5c(c4)OCO5)ccc3O[C@@H]2[C@@H](CO)O1)NCc1ccc(Oc2ccccc2)cc1
[1]
  AC35: 16 µM

## CN(C)c1ccc2c(c1)[C@@H]1C[C@H](CC(=O)NCc3ccc(Oc4ccccc4)cc3)O[C@@H](CO)[C@@H]1O2
[1]
  AC35: 30.4 µM

## O=C(C[C@@H]1C[C@@H]2c3cc(NS(=O)(=O)c4ccc(F)cc4)ccc3O[C@@H]2[C@@H](CO)O1)NCc1ccc(Oc2ccccc2)cc1
[1]
  AC35: 22.2 µM

## C[C@@H]1CN([C@H](C)CO)C(=O)Cc2cc(NC(=O)Cc3ccccc3)ccc2O[C@H]1CN(C)Cc1ccc(C(F)(F)F)cc1
[2]; at 35 µM (top of the series)
  activity change, negative = cytotoxicity: 3.94% (inactive)

## CN(C)c1ccc2c(c1)[C@@H]1C[C@@H](CC(=O)NCc3ccc(Oc4ccccc4)cc3)O[C@@H](CO)[C@@H]1O2
[2]; at 35 µM (top of the series)
  activity change, negative = cytotoxicity: 8.56% (inactive)

## COc1cccc(C(=O)Nc2ccc3c(c2)C(=O)N(C)C[C@H](OC)[C@@H](C)CN(CCc2ccccc2)[C@@H](C)CO3)c1
[2]; at 35 µM (top of the series)
  activity change, negative = cytotoxicity: -13% (inactive)

## C[C@@H](NC(=O)C[C@H]1C[C@@H]2c3cc(NC(=O)c4cccnc4)ccc3O[C@@H]2[C@@H](CO)O1)c1ccccc1
[2]; at 35 µM (top of the series)
  activity change, negative = cytotoxicity: -0.579% (inactive)

## C[C@H](NC(=O)C[C@H]1C[C@@H]2c3cc(NC(=O)c4cccnc4)ccc3O[C@@H]2[C@@H](CO)O1)c1ccccc1
[2]; at 35 µM (top of the series)
  activity change, negative = cytotoxicity: -1.74% (inactive)

## O=C(C[C@H]1C[C@@H]2c3cc(NS(=O)(=O)c4ccc(F)cc4)ccc3O[C@@H]2[C@@H](CO)O1)NCc1ccc(Oc2ccccc2)cc1
[1]
  AC35: 34.7 µM

## COc1ccc(NC(=O)N(C)C[C@@H]2Oc3cc(C#CCC(C)C)ccc3S(=O)(=O)N([C@@H](C)CO)C[C@@H]2C)cc1
[2]; at 35 µM (top of the series)
  activity change, negative = cytotoxicity: -0.055% (inactive)

## C[C@H](CO)N1C[C@H](C)[C@@H](CN(C)S(=O)(=O)c2cccc(F)c2)Oc2ncc(C#CC3CCCCC3)cc2C1=O
[2]; at 35 µM (top of the series)
  activity change, negative = cytotoxicity: 4.17% (inactive)

## Cc1noc(C)c1S(=O)(=O)Nc1ccc2c(c1)C(=O)N([C@@H](C)CO)C[C@@H](C)[C@@H](CN(C)Cc1ccc(C(F)(F)F)cc1)OCCCC[C@@H](C)O2
[2]; at 35 µM (top of the series)
  activity change, negative = cytotoxicity: -5.16% (inactive)

## COc1ccc(-c2cccc(-c3nc(C(=O)NCC(F)(F)F)cc4c3[C@H](CCO)N([S@@](=O)C(C)(C)C)C4)c2)cc1
[2]; at 35 µM (top of the series)
  activity change, negative = cytotoxicity: -13.3% (inactive)

## COC(=O)C[C@H]1C[C@H]2c3cc(NC(=O)CN(C)C)ccc3O[C@H]2[C@H](CO)O1
[2]; at 35 µM (top of the series)
  activity change, negative = cytotoxicity: 3.27% (inactive)

## O=C(Nc1ccc(C(F)(F)F)cc1)Nc1ccc2c(c1)[C@@H]1C[C@H](CC(=O)N3CCc4ccccc4C3)O[C@H](CO)[C@@H]1O2
[1]
  AC35: 36.7 µM

## C[C@@H](NC(=O)C[C@@H]1C=C[C@@H](NC(=O)Cc2ccccn2)[C@@H](CO)O1)c1ccccc1
[2]; at 35 µM (top of the series)
  activity change, negative = cytotoxicity: -0.658% (inactive)

## C[C@@H]1CN([C@@H](C)CO)C(=O)Cc2cc(NC(=O)Cc3ccccc3)ccc2O[C@@H]1CN(C)Cc1ccc(C(F)(F)F)cc1
[2]; at 35 µM (top of the series)
  activity change, negative = cytotoxicity: -0.78% (inactive)

## C[C@H]1CN([C@@H](C)CO)C(=O)c2cc(C#Cc3ccccc3F)cnc2O[C@@H]1CN(C)C(=O)C1CCCCC1
[2]; at 35 µM (top of the series)
  activity change, negative = cytotoxicity: 8.49% (inactive)

## C[C@H]1CN([C@@H](C)CO)C(=O)Cc2cc(NC(=O)Cc3ccccc3)ccc2O[C@H]1CN(C)Cc1ccc(C(F)(F)F)cc1
[2]; at 35 µM (top of the series)
  activity change, negative = cytotoxicity: 2.21% (inactive)

## COc1ccc(S(=O)(=O)N(C)C[C@H]2Oc3ncc(/C=C/c4ccccc4)cc3C(=O)N([C@H](C)CO)C[C@@H]2C)cc1
[2]; at 35 µM (top of the series)
  activity change, negative = cytotoxicity: 7.14% (inactive)

## COc1cccc(S(=O)(=O)N(C)C[C@@H]2Oc3cc(C4=CCCCC4)ccc3S(=O)(=O)N([C@H](C)CO)C[C@H]2C)c1
[2]; at 35 µM (top of the series)
  activity change, negative = cytotoxicity: 7.75% (inactive)

## C[C@@H](NC(=O)C[C@@H]1C=C[C@@H](NC(=O)Cc2ccccn2)[C@H](CO)O1)c1ccccc1
[2]; at 35 µM (top of the series)
  activity change, negative = cytotoxicity: 0.18% (inactive)

## CO[C@@H]1CN(C)C(=O)c2ccc(NC(C)=O)cc2OC[C@@H](C)N(Cc2ccccc2F)C[C@H]1C
[2]; at 35 µM (top of the series)
  activity change, negative = cytotoxicity: 2.23% (inactive)

## Cc1noc(C)c1S(=O)(=O)Nc1ccc2c(c1)C(=O)N([C@H](C)CO)C[C@H](C)[C@H](CN(C)Cc1ccc(C(F)(F)F)cc1)OCCCC[C@H](C)O2
[2]; at 35 µM (top of the series)
  activity change, negative = cytotoxicity: -5.76% (inactive)

## CC(C)(C)[S@@](=O)N1Cc2cc(C(=O)NCc3ccccc3F)nc(-c3cccc(-c4ccncc4)c3)c2[C@H]1CCO
[2]; at 35 µM (top of the series)
  activity change, negative = cytotoxicity: 0.812% (inactive)

## Cc1noc(C)c1S(=O)(=O)Nc1ccc2c(c1)C(=O)N([C@H](C)CO)C[C@@H](C)[C@H](CN(C)Cc1ccc(C(F)(F)F)cc1)OCCCC[C@H](C)O2
[2]; at 35 µM (top of the series)
  activity change, negative = cytotoxicity: -6.93% (inactive)

## COc1ccccc1C#Cc1ccc([C@H]2[C@H](C#N)N(C(=O)C3CC3)[C@H]2CO)cc1
[2]; at 35 µM (top of the series)
  activity change, negative = cytotoxicity: -4.85% (inactive)

## O=C(C[C@@H]1C[C@H]2c3cc(NC(=O)c4ccc5c(c4)OCO5)ccc3O[C@H]2[C@H](CO)O1)NC1CCCCC1
[2]; at 35 µM (top of the series)
  activity change, negative = cytotoxicity: -16.7% (inactive)

## C[C@@H]1CN([C@H](C)CO)C(=O)Cc2cc(NC(=O)Cc3ccccc3)ccc2O[C@@H]1CN(C)Cc1ccc(C(F)(F)F)cc1
[2]; at 16 µM (top of the series)
  activity change, negative = cytotoxicity: 4.6% (inactive)

## COc1cccc(S(=O)(=O)N(C)C[C@@H]2Oc3cc(C4=CCCCC4)ccc3S(=O)(=O)N([C@@H](C)CO)C[C@@H]2C)c1
[2]; at 35 µM (top of the series)
  activity change, negative = cytotoxicity: -5.63% (inactive)

## O=C(C[C@H]1C[C@@H]2c3cc(NS(=O)(=O)c4ccc(F)cc4)ccc3O[C@@H]2[C@H](CO)O1)NC1CCCCC1
[2]; at 35 µM (top of the series)
  activity change, negative = cytotoxicity: 0.09% (inactive)

## CC(C)(C)[S@@](=O)N1Cc2cc(C(=O)NCc3ccccn3)nc(-c3cccc(-c4ccccc4F)c3)c2[C@H]1CCO
[2]; at 35 µM (top of the series)
  activity change, negative = cytotoxicity: -1.27% (inactive)

## C[C@H](CO)N1C[C@H](C)[C@@H](CN(C)Cc2ccc(C(F)(F)F)cc2)Oc2ccc(NC(=O)Cc3ccccc3)cc2CC1=O
[2]; at 35 µM (top of the series)
  activity change, negative = cytotoxicity: -0.272% (inactive)

## CO[C@H](CN(C)S(=O)(=O)c1cccc(Cl)c1)[C@@H](C)CN([C@H](C)CO)S(=O)(=O)c1ccc(Cl)cc1
[2]; at 35 µM (top of the series)
  activity change, negative = cytotoxicity: -9.42% (inactive)

## Cc1noc(C)c1S(=O)(=O)Nc1ccc2c(c1)C(=O)N([C@@H](C)CO)C[C@H](C)[C@H](CN(C)Cc1ccc(C(F)(F)F)cc1)OCCCC[C@H](C)O2
[2]; at 35 µM (top of the series)
  activity change, negative = cytotoxicity: -5.45% (inactive)
